Results published in article PMC11020070, “Discovery of Protease-Activated Receptor 4 (PAR4)-Tethered Ligand Antagonists Using Ultralarge Virtual Screening” (ACS Pharmacology & Translational Science, 2024).
“Also recorded” adds a separate entry of the source.

Tests used:
[1] = target: thrombin (Homo sapiens, UniProt P00734); test: Fluorometric assay of in vitro thrombin activity; assay type: biochemical
From the text: The enamine-purchased 7 compound was confirmed using mass spectrometry and ^1H NMR (data not shown) and then was independently resynthesized at Vanderbilt University (VU).
(1 picture or pasted object on this page, not shown here)

[2] = target: T1, PAR1 (Homo sapiens, UniProt P25116); test: PAR1 component of α-thrombin activation (α-thrombin + BMS-3) in platelets; assay type: cell-based; settings: read-out: PAR1 IC50 (Figure 6D)
T1 construct: endogenous in cells; host or cells: platelets
T1 sequence (P25116 22-425): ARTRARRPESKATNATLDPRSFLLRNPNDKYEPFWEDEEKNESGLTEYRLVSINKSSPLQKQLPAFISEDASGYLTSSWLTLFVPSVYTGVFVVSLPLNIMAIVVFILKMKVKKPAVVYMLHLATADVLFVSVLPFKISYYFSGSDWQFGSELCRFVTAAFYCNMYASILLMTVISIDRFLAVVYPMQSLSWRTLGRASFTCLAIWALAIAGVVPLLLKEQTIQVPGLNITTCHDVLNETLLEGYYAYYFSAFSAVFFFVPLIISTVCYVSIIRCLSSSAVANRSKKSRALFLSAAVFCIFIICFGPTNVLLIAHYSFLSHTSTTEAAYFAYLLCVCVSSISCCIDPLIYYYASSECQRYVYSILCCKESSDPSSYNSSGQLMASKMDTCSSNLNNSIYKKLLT
From the text: Figure 6 (A) Distribution of IC50 values for the inhibition of human PAR4 vs mouse PAR4. Red indicates the 2 compounds highlighted in panels (B–D). (B) Structures of exemplar compounds. (C) Concentration–response curves for human vs mouse PAR4. (D) Concentration–response curves for the inhibition of pharmacologically defined α-thrombin components for PAR1 (α-thrombin + BMS-3) vs PAR4 (α-thrombin + vorapaxar).
α-thrombin activates both PAR1 and PAR4, and the individual PAR1 or PAR4 component can be isolated pharmacologically. […] With 20 substitutions between PAR1 and PAR4 within 5 Å of the predicted 31 binding site, the basis for these selectivity differences is not known (Figure S4). As we continue to probe for a selective PAR4 antagonist, mutagenesis of individual residues will be conducted.

[3] = Buffer-only incubation (KPI or Tyrode's HP buffer), compound stability; assay type: physicochemical; settings: potassium phosphate (KPI) or Tyrode's buffer (HP), no microsomes
From the text: Mammalian liver microsomes include CYPs, flavin monooxygenases (FMOs), glucuronosyltransferases ([…]), and esterases as part of their enzyme composition. In the presence of NADPH, which serves as a cofactor for CYP- and FMO-dependent reactions, the observed activity can be attributed to these enzymes. Similarly, UGTs require the cofactor uridine diphosphate glucuronic acid (UDPGA). Therefore, when NADPH and UDPGA are absent, any reduction in the compound can be ascribed only to esterase activity or chemical instability. […] This is based on two factors: (1) the stability of the compounds in HP buffer, which is used in the platelet assays, and (2) the low probability of drug metabolism occurring within the platelets themselves. Together, these minimize the chance that any metabolites with distinct PAR4 potencies could confound the results. By comparing the area under the curve of the compound metabolized from the microsomal incubations in the presence or absence of NADPH to the corresponding area under the curve of the buffer-only incubation, the percent contribution of CYPs and FMOs and esterases were estimated (Table S1). The major contributing enzyme toward the metabolism of 12 is esterases in both the human (96%) and mouse (98%). In contrast, the metabolism of 31 was primarily driven by CYPs and FMOs in both HLM (80%) and MLM (88%).
Supplem ental Fig ure S5 . Depletion of 12 over time in the presence (ν) or absence (λ) of NADPH. Incubations w e re carried out in the presence of human (A) or mouse (B) li ver microsomes or without microsomes but in either KPI (C) or HP (D) buffer. […] Error bars smaller than the symbols a re not visible. […]
Supplem ental Figure S6. […] Values a re expressed as percentage of compound remaining at ea ch time compared with time 0 min and represent the mean ± SD (n = 3). […]
Supplem ental Fig ure S7 . […] Values a re expressed as percentage of compound remaining at ea ch time co mpa red with time 0 min and represent the mean ± SD (n = 3). […]

[4] = target: T2, PAR4 (Homo sapiens, UniProt Q96RI0); test: Schild analysis, progressive fold-shift against γ-thrombin in platelets; assay type: cell-based; parameters: endogenous in cells; host or cells: platelets; settings: for mode of inhibition: against γ-thrombin activation; for Schild plot slope m: slope of linear regression, γ-thrombin, 20 min pretreatment
T2 sequence (Q96RI0 18-385): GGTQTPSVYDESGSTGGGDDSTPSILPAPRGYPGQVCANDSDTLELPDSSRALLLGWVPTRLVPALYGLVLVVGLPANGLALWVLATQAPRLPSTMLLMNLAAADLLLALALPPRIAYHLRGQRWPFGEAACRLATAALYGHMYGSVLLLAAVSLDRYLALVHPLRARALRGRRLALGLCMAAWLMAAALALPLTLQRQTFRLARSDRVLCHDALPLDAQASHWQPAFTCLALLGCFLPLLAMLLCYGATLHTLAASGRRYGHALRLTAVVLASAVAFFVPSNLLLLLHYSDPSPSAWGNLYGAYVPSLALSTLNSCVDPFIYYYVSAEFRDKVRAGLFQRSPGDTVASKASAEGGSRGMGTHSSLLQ
Method: A Schild analysis was performed on compounds 12 and 31 to determine the mode of inhibition of these compounds.
Figure 7 Schild analysis progressive fold-shift experiments. (A) Platelets were pretreated with increasing concentrations of each antagonist for 20 min prior to activation with increasing concentrations of γ-thrombin. (B) Logarithmic transformation of the dose ratio plotted versus the logarithm of compound concentration. m = slope of linear regression. TEXT PRINTED IN THE PICTURE: (B) 12: m = 0.99 | (D) 31: m = 0.95

Row | IC50 [2] [µM] | loss of compound over time in buffer only [3] | mode of inhibition [4] | Schild plot slope m [4] | SMILES | direct inhibition of thrombin enzymatic activity [1]
1 | – | – | – | – | Cc1nc(NC(=O)c2cc(-c3ccccc3)n(-c3ccccc3)n2)n[nH]1 [Compound 7] | do not inhibition; also recorded: failed to directly inhibit
2 | 5.81 | little loss of compound over time | competitive | 0.99 | Cn1nc(C(=O)Nc2n[nH]c(-c3c(F)cccc3F)n2)cc1C1CC1 [Compound 12] | –
3 | – | little loss of compound over time | – | – | O=C(Nc1nc[nH]n1)c1nn(-c2ccccc2)c2c1CCC2 [Compound 17] | –
4 | 1.51 | little loss of compound over time | competitive | 0.95 | O=C(Nc1n[nH]c(-c2ccc(F)cc2F)n1)c1nn(-c2ccccc2)c2c1CCCC2 [Compound 31] | –
5 | – | – | – | – | Cc1cc(C(=O)Nc2n[nH]c(OC(F)F)n2)nn1-c1ccccc1 [Compound 9] | do not inhibition
